Several values for one entry are separate records, joined by “and”; a condition that tells them apart may be missing. Equal entries are not always repeated.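 1) Cells in 96-well plates. 2) Compound, 48 h, 5 concentrations. 3) Linear interpolation between surrounding doses. 4) Unreached endpoint = highest concentration. GI50: concentration for 50% inhibition of growth. The concentration for full growth arrest is given as TGI.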
Columns and labels:
Assay in all cases: NCI tumour cell line growth inhibition, 48 h
[1] = test system: SK-OV-3 ovarian
[2] = test system: SN12C renal
[3] = test system: OVCAR-4 ovarian
[4] = test system: COLO 205 colon
[5] = test system: HCT-116 colon
[6] = test system: PC-3 prostate
[7] = test system: CCRF-CEM leukemia
[8] = test system: IGROV1 ovarian
[9] = test system: UACC-62 melanoma
[10] = test system: MOLT-4 leukemia

Compound	TGI [1]	TGI [2]	TGI [3]	TGI [4]	TGI [5] [µM]	TGI [6] [µM]	TGI [7]	TGI [8] [µM]	TGI [9]	TGI [10]	GI50 [1]	GI50 [2]	GI50 [3]	GI50 [4]	GI50 [5]	GI50 [6]	GI50 [7]	GI50 [9]	GI50 [10]	GI50 [8] [µM]
CCN1CCC(CNC(=O)c2ccc(N)cc2)N1CC (centres undefined)	> 100 µM	> 100 µM	> 100 µM	> 100 µM	> 100	> 100	> 100 µM	> 100	> 100 µM	> 100 µM										
CC(C)C1=CC(=O)[C@@](C)(C2[C@H](O)C[C@@]3(C)[C@@H]4CC=C5[C@@H](CC[C@@H](OC6OCC(O)C(O)C6OC6OC(C)C(O)C(O)C6O)C5(C)C)[C@]4(C)C(=O)C[C@]23C)O1 (some centres undefined)	> 100 µM	> 100 µM	> 100 µM	> 100 µM	> 100	> 100	> 100 µM	> 100	> 100 µM	> 100 µM										
COc1cc2c(/C=C3/C(=O)Nc4ccc(Cl)cc43)c(Cl)[nH]c2cc1C	10.6 µM	2.67 µM	11.4 µM	2.44 µM	10.7	11.6	0.933 µM	5.43	2.87 µM	0.814 µM										
COc1ccccc1C1(c2c(OC)c(=O)c2=O)SCCCS1	> 100 µM	> 100 µM	> 100 µM	> 100 µM	> 100	> 100	> 100 µM	> 100	> 100 µM	> 100 µM										
Cc1ccc2nc(-c3ccc(C(C)(C)C)cc3)oc(=O)c2c1	62.1 µM	> 100 µM	90.3 µM	35.5 µM	51.9	69.6	46.9 µM	87.6	49.3 µM	39.3 µM										
O=C(Nc1ccc(S(=O)(=O)/N=c2\ncccn2C(=O)C(C(F)(F)F)C(F)(F)F)cc1)C(C(F)(F)F)C(F)(F)F	> 100 µM	> 100 µM	> 100 µM	> 100 µM	> 100	> 100	> 100 µM	> 100	> 100 µM	> 100 µM										
O=C(/C=C(\C(=O)c1cccs1)c1cccs1)c1ccc(C(=O)/C=C(\C(=O)c2cccs2)c2cccs2)cc1	> 100 µM	> 100 µM	> 100 µM	> 100 µM	> 100	> 100	> 100 µM	> 100	> 100 µM	> 100 µM										
CC(=O)OCC1OC(n2c(S)c(C#N)c(-c3ccccc3)c(C#N)c2=O)C(OC(C)=O)C(OC(C)=O)C1OC(C)=O (centres undefined)	> 100 µM and 96.6 µM	> 100 µM and 81.7 µM	> 100 µM and 83.3 µM	> 100 µM and 65.3 µM	> 100	> 100	> 100 µM and 96.7 µM	> 100	> 100 µM and 59.5 µM	> 100 µM and 50.8 µM	99.5 µM and 32.1 µM	> 100 µM and 25.2 µM	> 100 µM and 30.6 µM	> 100 µM and 26.1 µM	> 100 µM and 39.3 µM	> 100 µM and 43.5 µM	> 100 µM and 43.1 µM	82.3 µM and 23.2 µM	> 100 µM and 23.6 µM	
CC1(C)COC2=C(C1)C(=O)c1ccccc1C2=O	3.72 µM	2.76 µM	2.9 µM	4.04 µM	1.7	3.58	5.77 µM	3.45	2.53 µM	3.91 µM										
COC(=O)C1OC(O[C@H]2CC[C@]3(C)[C@H]4CC=C5[C@@H]6CC(C)(C)CC[C@]6(C(=O)OC6OCC(O)C(O)C6OC6OC(C)C(OC7OCC(O)C(O)C7O)C(OC7OCC(O)(CO)C7O)C6O)[C@H](O)C[C@@]5(C)[C@]4(C)CC[C@H]3C2(C)C)C(O)C(O)C1O (some centres undefined)	24.9 µM	3.6 µM	17.4 µM	2.92 µM	13.5	14.5	> 100 µM	27.1	6.08 µM	> 100 µM										
CCCCCCCCCCCCCCCCNc1ccn(C2CC(O)C(COC(c3ccccc3)(c3ccccc3)c3ccc(OC)cc3)O2)c(=O)n1 (centres undefined)	> 100 µM	> 100 µM	> 100 µM	> 100 µM	> 100	> 100	> 100 µM	> 100	> 100 µM	> 100 µM										
CC(C)(NC(=O)OCc1ccccc1)C(=O)OC(=O)C(C)(C)NC(=O)OCc1ccccc1	> 100 µM	> 100 µM	> 100 µM	> 100 µM	> 100	> 100	> 100 µM	> 100	> 100 µM	> 100 µM										
O=C(Cn1c(C(=O)c2ccccc2)nc2ccccc21)c1ccccc1	> 100 µM	> 100 µM	> 100 µM	> 100 µM	> 100	> 100	> 100 µM	> 31.6	> 100 µM	> 100 µM										
C=C1C(=O)O[C@H]2C[C@@H]1[C@@H](O)[C@H](O)[C@@H](C)CCCC(C)=CCC[C@@]2(C)O	> 100 µM	72.3 µM	83.9 µM	28.2 µM	51.8	43.9	> 100 µM	> 100	49.2 µM	54.6 µM										
CCOC(=O)c1c(SC(=O)c2ccc(OC)cc2)n(-c2ccccc2)c(=S)n(-c2ccccc2)c1=O	> 100 µM	> 100 µM	> 100 µM	> 100 µM	47.9	> 100	> 100 µM	38	> 100 µM	64 µM										
COc1nc2ccc(COc3ccc(C(=O)O)cc3)cc2nc1OC	> 100 µM	> 100 µM	> 100 µM	> 100 µM	> 100	> 100	97.4 µM	> 100	> 100 µM	> 100 µM										
COC(=O)Nc1nc2ccc(S(=O)(=O)N3CCOCC3)cc2[nH]1	> 100 µM	> 100 µM	> 100 µM	> 100 µM	> 100	> 100	> 100 µM	> 100	> 100 µM	> 100 µM										
CCCCCCCCCCCCCC[n+]1ccc(C)cc1	5.56 µM	4.11 µM	2.71 µM	2.67 µM	2.01	2.63	5.11 µM	0.953	2.57 µM	2.65 µM	1.8 µM	1.56 µM	0.523 µM	1.22 µM	0.403 µM	0.455 µM	0.818 µM	1.08 µM	0.689 µM	0.349
